Experimental data taken from patent US10080779B2, “Method for increasing the expression of anti-microbial peptides by keratinocytes comprising administering a composition comprising IL-17, TNF-alpha and OSM” (Universite D'Angers, priority 2004, dated 2018).

Assays:
NHEK [1] = test: RT-QPCR of antimicrobial peptide and chemokine genes in NHEK; type: cell-based, human; settings: 10 ng/ml, 24 h
Experimental: NHEK were obtained as previously described, from surgical samples of healthy breast skin (Boniface et al, 2005). NHEK were cultured to 80% of confluence and then starved for 24 h in Keratinocyte SFM without addition of growth factors before stimulation. Cells were stimulated with or without 10 ng/ml of recombinant IL-17A, OSM, TNFα, IL-22 and IL-1α alone or in combination (R&D systems Europe, Lille, France) during 24 h for mRNA quantification or 48 h to 96 h for protein quantification.
NHEK and skin total RNA were isolated and reverse-transcribed as previously described (Boniface et al, 2005). Quantitative real time PCR was carried using the LightCycler-FastStart DNA Master SYBR® Green I kit on LightCycler 480 (Roche Diagnostics, Meylan, France). The reaction components were 1×DNA Master Mix, and 0.5 μM of HPLC purified sense and anti-sense oligonucleotides purchased from Eurogentec (Eurogentec France, Angers, France), designed using Primer3 software. Samples were normalized to three independent control housekeeping genes (G3PDH, RPL13A or ACTB for human samples and G3PDH, HMBS or B2m for mouse samples) and reported according to the ΔΔCT method as RNA fold increase: 2^ΔΔCT=2^ΔCT sample−ΔCT eference. For comparison of normal skin and psoriatic skin the REST 2008 software was used (Pfaffl et al., 2002).

NHEK [2] = test: Keratinocyte differentiation marker (KDM) mRNA in NHEK (RT-PCR); type: cell-based, human; settings: 24 h
Experimental: (§1) Normal human epidermal keratinocytes (NHEK) were obtained as previously described, from surgical samples of healthy breast skin (Boniface et al, 2005). NHEK were cultured to 80% of confluence allowing the expression of a large panel of keratinocyte differentiation markers, and then starved for 24 h in Keratinocyte SFM containing 0.03 mM Ca^2+ (Invitrogen Life Technologies, Cergy Pontoise, France) before stimulation. Confluent differentiated cells were stimulated with or without recombinant IL-17A, OSM, TNFα, IL-22 and IL-1α alone at maximum effective concentrations (reported previously around 10 ng/ml (Boniface et al, 2005 and Boniface et al, 2007)) or in combination (R&D systems Europe, Lille, France) during 2 h to 72 h for mRNA quantification. RHE were generated on polycarbonate culture inserts, from surgical samples of paediatric foreskins as previously described (Guenou et al., 2009). RHE were stimulated with or without recombinant IL-17A, OSM, TNFα, IL-22 and IL-1α alone or in combination, with or without a Janus protein Tyrosine Kinases (JAKs) inhibitor 10 μM (Calbiochem, 420099), during 24 h for mRNA quantification or during 72 h for immunohistological analysis.
(§2) NHEK, RHE and murine skin total RNA were isolated using NucleoSpin® RNA II kit (Macherey-Nagel, Hoerdt, France) and reverse-transcribed with SuperScript® II Reverse Transcriptase (Invitrogen Life Technologies) according to the manufacturer's instructions. Quantitative real time PCR was carried out using the LightCycler-FastStart DNA Master SYBR® Green I kit on LightCycler 480 (Roche Diagnostics, Meylan, France). The reaction components were 1×DNA Master Mix, and 0.5 μM of HPLC purified sense and anti-sense oligonucleotides purchased from Eurogentec (Eurogentec France, Angers, France), designed using Primer3 software. The stability of the housekeeping gene expression has been assessed by using GeNorm algorithm. […] Thus samples were normalized to G3PDH housekeeping gene and reported according to the ΔΔCT method as RNA fold increase: 2^ΔΔCT=2^ΔCT sample−ΔCT reference.

NHEK [3] = test: Chemokine production by NHEK (ELISA), OSM; type: cell-based, human; settings: 48 h NHEK under OSM stimulation
Experimental: IL-1beta, IL-6, IL-8, IL-10, IL-12p70, TNF alpha, ENA-78, MIP 3 beta were measured by specific ELISA in 48 h NHEK culture supernatants. Cells were cultured in the presence or not of OSM. Dose-response (0.4 to 25 ng/ml) and kinetic (6 to 96 h) studies of ENA78 production were also performed.

[4] = test system: normal human keratinocytes (NHEK); test: Cytokine cocktails on S100A7, hBD2/4, KRT10 mRNA in NHEK (RT-Q-PCR); type: cell-based; settings: NHEK 24 hrs, 1 ng/ml each
Experimental: (§3) Quantitative real time PCR was carried out using the LightCycler-FastStart DNA Master^PLUS SYBR Green I kit (Roche, Mannheim, Germany). The reaction components were 1× FastStart DNA Master^PLUS SYBR Green I and 0.5 μM of forward and reverse primers for S100A7 (forward 5′-[…]-3′ (SEQ ID No: 9) and reverse 5′-[…]-3′ (SEQ ID No: 10)), S100A8 (Pattyn, Speleman et al. 2003), S100A9 (forward 5′-[…]-3′ (SEQ ID No: 11) and reverse 5′-[…]-3′ (SEQ ID No: 12)), hBD2/4 (forward 5′-[…]-3′ (SEQ ID No: 13) and reverse 5′-[…]-3′ (SEQ ID No: 14)), KRT10 (forward 5′-[…]-3′ (SEQ ID No: 15) and reverse 5′-[…]-3′ (SEQ ID No: 16)), and hydroxymethyl-bilane synthase (HMBS) as a housekeeping gene (Vandesompele, De Preter et al. 2002). After cDNA fluorescent quantification using propidium iodide, 250 ng, 25 ng and 2.5 ng of cDNA were added as PCR template in the LightCycler glass capillaries. The cycling conditions comprised a 10 min polymerase activation at 95° C. and 50 cycles at 95° C. for 10 s, 64° C. for 5 s and 72° C. for 18 s with a single fluorescence measurement. […] A mathematical model was used to determine the relative quantification of target genes compared to HMBS reference gene (Pfaffl 2001).
To that aim, confluent normal human keratinocytes (NHEK) were treated for 24 hrs with the indicated mix of cytokines (each cytokine at 1 ng/ml final concentration). Total RNA was extracted, reverse-transcribed and the expression of the selected genes was analyzed by real-time PCR as described.

NHEK [5] = test: RT-real time PCR of S100 mRNA in cytokine-stimulated NHEK; type: cell-based, human
Experimental: as §3

RHE = test: KDM mRNA in reconstituted human epidermis (RT-PCR); type: cell-based; settings: 24 h
Experimental: as §1, §2

**Q.** Which results are given for “OSM: human recombinant oncostatin M, cytokine of the IL-6 family”?
**A.** Number of the 21 chemokine and antimicrobial peptide genes upregulated (NHEK [1]): 13; Rank as contributor to keratinocyte differentiation inhibition (removal from M5) (NHEK [2]): most potent cytokines for keratinocyte differentiation inhibition; mRNA expression of CK1, DSG1, DSC1, FLG, CLSP, LOR and FABPS (NHEK [2]; single cytokines 10 ng/ml): downregulate mRNA expression; Production of chemokines CXCL5 and CXCL8 (NHEK [3]): clearly enhanced; Decrease of the activity of the 5 cytokines reference mix on omission of the cytokine, S100A7 [4]: 3 fold; Decrease of the activity of the 5 cytokines reference mix on omission of the cytokine, hBD2/4 [4]: 2.5 fold; Time at which S100A7 mRNA increase starts (NHEK [5]; 10 ng/ml OSM): 12 h; psoriasin/S100A7 mRNA induction above the control value (NHEK [5]; 10 ng/ml OSM, 96 h): about 290 folds; OSM concentration at which plateau of S100A7 mRNA is reached (NHEK [5]; 48-h treatment): 6.3 ng/mL; psoriasin/S100A7 mRNA increase above control at plateau (NHEK [5]; 48-h treatment, 6.3 ng/ml OSM): fifty fold increase; Expression of KDM mRNA (CK10, CK1, LOR, FLG) (RHE): most active cytokines; S100A7 mRNA expression (RHE): strongly induced
